Measured values taken from the supplement of paper PMC10307832.

Assays:
Experiment in all cases: relative viability (nuclei count vs DMSO), 5 days (fraction); higher = more cells survive
Dinaciclib + Pemetrexed = compound: CCc1cnn2c(NCc3ccc[n+]([O-])c3)cc(N3CCCC[C@H]3CCO)nc12 [Dinaciclib] + Nc1nc2[nH]cc(CCc3ccc(C(=O)N[C@@H](CCC(=O)O)C(=O)O)cc3)c2c(=O)[nH]1 [Pemetrexed] (partner 0.2 µM)
Procedure, shortened: (§1)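 Medians of duplicate plates are given as relative viability. That measure is the nuclei count in treated wells divided by the count in vehicle wells. Counts were taken on 4× images of lung cancer cell lines in 1536-well plates, 5 days after pin-tool dosing the day after seeding with one drug alone or a fixed anchor-drug dose plus five library-drug doses (not always all listed) in √10 steps.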

Dinaciclib + Palbociclib = compound: CCc1cnn2c(NCc3ccc[n+]([O-])c3)cc(N3CCCC[C@H]3CCO)nc12 [Dinaciclib] + CC(=O)c1c(C)c2cnc(Nc3ccc(N4CCNCC4)cn3)nc2n(C2CCCC2)c1=O [Palbociclib] (partner 0.5 µM)
Procedure, shortened: as §1

Dinaciclib + Bortezomib = compound: CCc1cnn2c(NCc3ccc[n+]([O-])c3)cc(N3CCCC[C@H]3CCO)nc12 [Dinaciclib] + CC(C)C[C@H](NC(=O)[C@H](Cc1ccccc1)NC(=O)c1cnccn1)B(O)O [Bortezomib] (partner 0.002 µM)
Procedure, shortened: as §1

Dinaciclib + Decitabine = compound: CCc1cnn2c(NCc3ccc[n+]([O-])c3)cc(N3CCCC[C@H]3CCO)nc12 [Dinaciclib] + Nc1ncn([C@H]2C[C@H](O)[C@@H](CO)O2)c(=O)n1 [Decitabine] (partner 2 µM)
Procedure, shortened: as §1

Dinaciclib + Foretinib = compound: CCc1cnn2c(NCc3ccc[n+]([O-])c3)cc(N3CCCC[C@H]3CCO)nc12 [Dinaciclib] + COc1cc2c(Oc3ccc(NC(=O)C4(C(=O)Nc5ccc(F)cc5)CC4)cc3F)ccnc2cc1OCCCN1CCOCC1 [Foretinib] (partner 0.25 µM)
Procedure, shortened: as §1

| Cell Line | relative viability (Dinaciclib + Pemetrexed; first compound 0.009487 µM) | relative viability (Dinaciclib + Pemetrexed; first compound 0.03 µM) | relative viability (Dinaciclib + Pemetrexed; first compound 0.09487 µM) | relative viability (Dinaciclib + Pemetrexed; first compound 0.3 µM) | relative viability (Dinaciclib + Palbociclib; first compound 0.009487 µM) | relative viability (Dinaciclib + Palbociclib; first compound 0.03 µM) | relative viability (Dinaciclib + Palbociclib; first compound 0.09487 µM) | relative viability (Dinaciclib + Palbociclib; first compound 0.3 µM) | relative viability (Dinaciclib + Bortezomib; first compound 0.009487 µM) | relative viability (Dinaciclib + Bortezomib; first compound 0.03 µM) | relative viability (Dinaciclib + Bortezomib; first compound 0.09487 µM) | relative viability (Dinaciclib + Bortezomib; first compound 0.3 µM) | relative viability (Dinaciclib + Decitabine; first compound 0.009487 µM) | relative viability (Dinaciclib + Decitabine; first compound 0.03 µM) | relative viability (Dinaciclib + Decitabine; first compound 0.09487 µM) | relative viability (Dinaciclib + Decitabine; first compound 0.3 µM) | relative viability (Dinaciclib + Foretinib; first compound 0.009487 µM) | relative viability (Dinaciclib + Foretinib; first compound 0.03 µM) | relative viability (Dinaciclib + Foretinib; first compound 0.09487 µM) | relative viability (Dinaciclib + Foretinib; first compound 0.3 µM) |
| --- | --- | --- | --- | --- | --- | --- | --- | --- | --- | --- | --- | --- | --- | --- | --- | --- | --- | --- | --- | --- |
| NCI-H2085 | 0.916 | 0.279 | 0.211 | 0.217 | 0.514 | 0.503 | 0.22 | 0.211 | 1.06 | 0.446 | 0.26 | 0.233 | 0.589 | 0.404 | 0.217 | 0.236 | 1.16 | 0.259 | 0.194 | 0.241 |
| NCI-H2087 | 0.687 | 0.109 | 0.106 | 0.101 | 0.22 | 0.086 | 0.0942 | 0.0781 | 0.998 | 0.135 | 0.142 | 0.123 | 0.189 | 0.0863 | 0.0711 | 0.0804 | 0.93 | 0.118 | 0.0913 | 0.106 |
| NCI-H2126 | 0.695 | 0.495 | 0.198 | 0.192 | 0.333 | 0.3 | 0.207 | 0.198 | 1.06 | 0.973 | 0.524 | 0.208 | 0.524 | 0.393 | 0.187 | 0.176 | 1.08 | 0.803 | 0.194 | 0.312 |
| NCI-H2347 | 0.459 | 0.319 | 0.228 | 0.224 | 0.506 | 0.321 | 0.21 | 0.212 | 1.23 | 0.226 | 0.239 | 0.215 | 0.673 | 0.383 | 0.212 | 0.232 | 0.824 | 0.248 | 0.298 | 0.261 |
| NCI-H2405 | 0.803 | 0.247 | 0.213 | 0.209 | 0.542 | 0.22 | 0.199 | 0.188 | 0.904 | 0.761 | 0.207 | 0.271 | 0.7 | 0.261 | 0.212 | 0.219 | 1.02 | 0.256 | 0.248 | 0.238 |
| NCI-H3122 | 0.245 | 0.106 | 0.0981 | 0.0956 | 0.175 | 0.108 | 0.0876 | 0.0895 | 1 | 0.195 | 0.139 | 0.151 | 0.404 | 0.117 | 0.121 | 0.107 | 1.02 | 0.131 | 0.0904 | 0.0928 |
| PC-3 [JPC-3] | 1.12 | 0.53 | 0.289 | 0.285 | 0.535 | 0.489 | 0.365 | 0.29 | 0.679 | 0.791 | 0.226 | 0.231 | 0.794 | 0.671 | 0.34 | 0.302 | 1.09 | 0.93 | 0.254 | 0.224 |
| PC-14 | 0.111 | 0.0682 | 0.0557 | 0.0571 | 0.215 | 0.0424 | 0.0361 | 0.0423 | 0.807 | 0.109 | 0.0534 | 0.0475 | 0.157 | 0.0718 | 0.0642 | 0.0671 | 0.841 | 0.543 | 0.0986 | 0.0886 |
| RERF-LC-KJ | 0.489 | 0.161 | 0.126 | 0.121 | 0.907 | 0.216 | 0.139 | 0.157 | 1.1 | 0.327 | 0.157 | 0.173 | 0.476 | 0.157 | 0.157 | 0.147 | 0.902 | 0.635 | 0.15 | 0.101 |
| SK-LU-1 | 0.97 | 0.226 | 0.229 | 0.185 | 0.393 | 0.229 | 0.17 | 0.165 | 1.09 | 0.17 | 0.188 | 0.193 | 0.64 | 0.234 | 0.211 | 0.227 | 0.579 | 0.158 | 0.139 | 0.121 |
| SW 1573 | 0.345 | 0.0723 | 0.07 | 0.0635 | 0.218 | 0.0747 | 0.0634 | 0.0773 | 0.777 | 0.104 | 0.0824 | 0.0954 | 0.314 | 0.0932 | 0.065 | 0.0758 | 0.827 | 0.526 | 0.0711 | 0.0971 |
| UMC-11 | 0.411 | 0.18 | 0.189 | 0.146 | 0.29 | 0.173 | 0.177 | 0.167 | 0.196 | 0.107 | 0.108 | 0.131 | 0.531 | 0.197 | 0.2 | 0.169 | 0.277 | 0.189 | 0.166 | 0.19 |
